According to ChEMBL document CHEMBL1201862, “PubChem BioAssay data set” (2004):
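1) Cells in 96-well plates. 2) Compound, 48 h, 5 concentrations. 3) Linear interpolation between surrounding doses. 4) Unreached endpoint = highest concentration. GI50 marks 50% less growth.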 Calls of active or inactive are those of the source. Rule as the data show it: active = GI50 up to about 1.1 µM and inactive = higher.

Key:
Assay in all cases: NCI anticancer screen, dose series, 48 h
HCC 2998 = tested on: HCC 2998
K562 = tested on: K562
HT-29 = tested on: HT-29
COLO 205 = tested on: COLO 205
SF-268 = tested on: SF-268
SK-MEL-2 = tested on: SK-MEL-2
CAKI-1 = tested on: CAKI-1
SW-620 = tested on: SW-620
SK-MEL-28 = tested on: SK-MEL-28
IGROV-1 = tested on: IGROV-1
NCI-H226 = tested on: NCI-H226
SR = tested on: SR
HCT-116 = tested on: HCT-116
CCRF-CEM = tested on: CCRF-CEM
Malme-3M = tested on: Malme-3M
A498 = tested on: A498
PC-3 = tested on: PC-3
MCF7 = tested on: MCF7
MDA-N = tested on: MDA-N

Structure (SMILES) | GI50 (HCC 2998) | GI50 (K562) | GI50 (HT-29) | GI50 (COLO 205) | GI50 (SF-268) | GI50 (SK-MEL-2) | GI50 (CAKI-1) | GI50 (SW-620) | GI50 (SK-MEL-28) | GI50 (IGROV-1) | GI50 (NCI-H226) | GI50 (SR) | GI50 (HCT-116) | GI50 (CCRF-CEM) | GI50 (Malme-3M) | GI50 (A498) | GI50 (PC-3) | GI50 (MCF7) | GI50 (MDA-N)
C[S+]([O-])c1ccc(COP(N)(=O)N(CCCl)CCCl)cc1 (centres undefined) | > 100 µM (inactive) | > 100 µM (inactive) | > 100 µM (inactive) | > 100 µM (inactive) | > 100 µM (inactive) | > 100 µM (inactive) | > 100 µM (inactive) | > 100 µM (inactive) | > 100 µM (inactive) | > 100 µM (inactive) | > 100 µM (inactive) | > 100 µM (inactive) | > 100 µM (inactive) | > 100 µM (inactive) | > 100 µM (inactive) | > 100 µM (inactive) |  |  | 
COC1C2C[C@@H](O)CCC2C(C(=O)OCCl)C[C@H]1O (some centres undefined) | > 100 µM (inactive) | > 100 µM (inactive) |  | > 100 µM (inactive) | > 100 µM (inactive) | > 100 µM (inactive) | > 100 µM (inactive) | > 100 µM (inactive) | > 100 µM (inactive) | > 100 µM (inactive) | > 100 µM (inactive) | > 100 µM (inactive) | > 100 µM (inactive) | > 100 µM (inactive) | > 100 µM (inactive) | > 100 µM (inactive) |  |  | 
CS/C(C)=N/OC(=O)NCCCCNc1ccc(N=[N+]=[N-])cc1 | 23.9 µM (inactive) | 30.8 µM (inactive) | 46.2 µM (inactive) | 36.1 µM (inactive) | 32.7 µM (inactive) |  | 36.5 µM (inactive) | 58.5 µM (inactive) | 49.7 µM (inactive) | 87.3 µM (inactive) | 21 µM (inactive) | 37.8 µM (inactive) | 34.2 µM (inactive) | 24.2 µM (inactive) | 32 µM (inactive) | 47 µM (inactive) |  |  | 
CNC(=O)N1CN(c2ccccc2)C2(CCN(CCCC(=O)c3ccc(F)cc3)CC2)C1=O | 7.82 µM (inactive) | 19.5 µM (inactive) | 5.19 µM (inactive) | 4.56 µM (inactive) | 39.1 µM (inactive) |  | 24.8 µM (inactive) | 27.3 µM (inactive) | 17.2 µM (inactive) | 19.5 µM (inactive) | 25.5 µM (inactive) | 21.9 µM (inactive) | 7.59 µM (inactive) | 13.9 µM (inactive) | 20 µM (inactive) |  | 31.2 µM (inactive) | 3.62 µM (inactive) | 
CC1(C)CC(=O)C(C(=O)C(=O)NC2=C(Cl)C(=O)c3ccccc3C2=O)C(=O)C1 | 45.4 µM (inactive) | 32 µM (inactive) | 80.7 µM (inactive) | 38.7 µM (inactive) | > 100 µM (inactive) | > 100 µM (inactive) | 71.8 µM (inactive) | > 100 µM (inactive) | > 100 µM (inactive) | > 100 µM (inactive) | 39.4 µM (inactive) | 30.8 µM (inactive) | > 100 µM (inactive) | 36 µM (inactive) | > 100 µM (inactive) | > 100 µM (inactive) |  |  | 
CN1CCC(CN2c3ccccc3Sc3ccccc32)CC1 | 12.9 µM (inactive) | 13.5 µM (inactive) | 12.7 µM (inactive) | 14.1 µM (inactive) | 15.4 µM (inactive) | 17.1 µM (inactive) | 4.93 µM (inactive) | 15.3 µM (inactive) | 11 µM (inactive) | 16.7 µM (inactive) | 15.4 µM (inactive) | 14.1 µM (inactive) | 12.6 µM (inactive) | 16.3 µM (inactive) |  | 15.6 µM (inactive) |  |  | 
CCSc1c2ccccc2c(-c2nc(F)nc(F)n2)n1CCc1ccccc1 | > 100 µM (inactive) | > 100 µM (inactive) | > 100 µM (inactive) | > 100 µM (inactive) | > 100 µM (inactive) | > 100 µM (inactive) | > 100 µM (inactive) | > 100 µM (inactive) | > 100 µM (inactive) |  | > 100 µM (inactive) | 51.3 µM (inactive) | > 100 µM (inactive) | 36.2 µM (inactive) | > 100 µM (inactive) | 86.5 µM (inactive) |  |  | 
Cc1c(Cl)cccc1NC(=O)C(=O)C1C(=O)NC(=O)NC1=O | > 100 µM (inactive) | > 100 µM (inactive) | > 100 µM (inactive) | > 100 µM (inactive) | > 100 µM (inactive) | > 100 µM (inactive) | > 100 µM (inactive) | > 100 µM (inactive) | > 100 µM (inactive) | > 100 µM (inactive) | > 100 µM (inactive) | > 100 µM (inactive) | > 100 µM (inactive) | > 100 µM (inactive) | > 100 µM (inactive) | > 100 µM (inactive) |  |  | 
BrC12c3ccccc3Sc3ccccc3C1(Br)c1ccccc12 (centres undefined) | 28.8 µM (inactive) | 22.2 µM (inactive) | 34.8 µM (inactive) | 28.8 µM (inactive) | 32.4 µM (inactive) | 15.8 µM (inactive) | 26.1 µM (inactive) | 36.2 µM (inactive) |  | 27 µM (inactive) | 16.7 µM (inactive) | 11.1 µM (inactive) | 22 µM (inactive) | 4.93 µM (inactive) | 30.7 µM (inactive) | 22.9 µM (inactive) |  |  | 
COC(=O)C1Cc2c([nH]c3ccccc23)-c2[nH]c3ccccc3c2CC(NC(C)=O)C(=O)N2CCCC2C(=O)N1 (centres undefined) | > 100 µM (inactive) | > 100 µM (inactive) | > 100 µM (inactive) | 53.1 µM (inactive) | > 100 µM (inactive) | > 100 µM (inactive) | > 100 µM (inactive) | > 100 µM (inactive) | > 100 µM (inactive) | 24.8 µM (inactive) | 0.176 µM (active) | > 100 µM (inactive) | > 100 µM (inactive) | 93.5 µM (inactive) |  |  | > 100 µM (inactive) | > 100 µM (inactive) | > 100 µM (inactive)
O=C(C1=CCC2(CC1)OCCO2)N(Cc1ccccc1)c1ccccc1I | 16.8 µM (inactive) | 43.2 µM (inactive) | 17.9 µM (inactive) | 17.7 µM (inactive) | 13.4 µM (inactive) | 21.2 µM (inactive) | 24.5 µM (inactive) | 29.7 µM (inactive) | 21.2 µM (inactive) |  | 19.9 µM (inactive) | 12.8 µM (inactive) | 14.8 µM (inactive) |  |  | 22.5 µM (inactive) | 26.3 µM (inactive) | 26.4 µM (inactive) | 29 µM (inactive)
CCOc1ccc(NC(=O)C(=O)NO)cc1 | > 100 µM (inactive) | > 100 µM (inactive) | > 100 µM (inactive) | > 100 µM (inactive) | > 100 µM (inactive) | > 100 µM (inactive) | > 100 µM (inactive) | > 100 µM (inactive) | > 100 µM (inactive) | > 100 µM (inactive) | > 100 µM (inactive) | 55.3 µM (inactive) | > 100 µM (inactive) | > 100 µM (inactive) | > 100 µM (inactive) | > 100 µM (inactive) |  |  | 
O=c1[nH]c(=O)n(C2OC(COP(=O)(O)OP(=O)(O)O)C(O)C2O)cc1F (centres undefined) | 0.538 µM (active) | 0.184 µM (active) | 0.716 µM (active) | 1.57 µM (inactive) | 0.298 µM (active) | 6.79 µM (inactive) | 0.368 µM (active) | 0.171 µM (active) | 2.13 µM (inactive) | 11.8 µM (inactive) | 3.13 µM (inactive) | 1.34 µM (inactive) | 0.0643 µM (active) | 0.817 µM (active) | 0.726 µM (active) | 6.25 µM (inactive) |  |  | 
Nc1nc(N)c2ncn(-c3ccc(Cl)cc3)c2n1 | 30.2 µM (inactive) |  | 35.1 µM (inactive) | 75.5 µM (inactive) |  | 39.6 µM (inactive) | 20.4 µM (inactive) |  | > 100 µM (inactive) | 6.97 µM (inactive) | 39.1 µM (inactive) |  | 37.9 µM (inactive) | 20.9 µM (inactive) | 28.4 µM (inactive) | 21.8 µM (inactive) | 35.7 µM (inactive) | 41.3 µM (inactive) | 89.1 µM (inactive)
Clc1ccc(C2=NNC(c3cccc(Cl)c3)C2)cc1 (centres undefined) |  | 37.4 µM (inactive) | 36.9 µM (inactive) | 15.9 µM (inactive) | 29.3 µM (inactive) | 0.362 µM (active) | 26.2 µM (inactive) | 23.2 µM (inactive) |  | 0.344 µM (active) | 35.6 µM (inactive) | 41.9 µM (inactive) | 26.7 µM (inactive) | 29 µM (inactive) | 28.1 µM (inactive) | 20 µM (inactive) | 24.9 µM (inactive) | 17.4 µM (inactive) | 21.1 µM (inactive)
CC(=O)OC1CCCn2c1nc1c2C(=O)C(C)=C(N2CC2)C1=O (centres undefined) | 0.232 µM (active) | 0.891 µM (active) | 0.208 µM (active) | 0.535 µM (active) | 0.251 µM (active) | 0.277 µM (active) | 0.296 µM (active) | 0.167 µM (active) | 0.522 µM (active) | 0.962 µM (active) | 0.318 µM (active) | 18.1 µM (inactive) | 0.409 µM (active) | 3.51 µM (inactive) | 0.219 µM (active) | 0.161 µM (active) |  |  | 
O=C(c1ccccc1)c1ccc(COc2ccc(C(c3c(O)c4ccccc4oc3=O)c3c(O)c4ccccc4oc3=O)cc2)cc1 | 18.5 µM (inactive) | 19.9 µM (inactive) | 18.3 µM (inactive) | 20.2 µM (inactive) | 31.9 µM (inactive) | 18.2 µM (inactive) | 22.8 µM (inactive) | 25.7 µM (inactive) | 17.9 µM (inactive) | 13.5 µM (inactive) | 0.173 µM (active) | 35.9 µM (inactive) | 33.3 µM (inactive) | 3.84 µM (inactive) |  |  | 18.3 µM (inactive) | 27.8 µM (inactive) | 26.5 µM (inactive)
